Experiments:
Type in all cases: cell-based
MDA-MB-231 cells [1] = assay: Wound-healing and transwell invasion and migration of MDA-MB-231 cells; details: FIGS. 5 and 6
Protocol: Compounds were tested for their effects on EMT using routine transwell and wound-healing experiments.
MDA-MB-231 breast cancer cells were inoculated into a 6-well plate in 5×10^5 cells/well, and when the cells occupied 100% of the medium, the medium was removed, and a scratch of a constant width was drawn in the middle of the monolayer cell with a 200-μL pipette tip. The cells were washed three times with phosphate buffered saline (PBS) to remove cell debris, followed by addition of 2% FBS with or without TGF-β1 (10 ng/mL) and substances to be tested at different concentrations, and cultured in RPMI-1640 for 24 hours. At the time points of 0 and 24 hour, three scratch areas were selected, and examined and photographed using a phase contrast inverted fluorescence microscopy (CKX41; Olympus) and Image-ProPlus image capture software. The degree of scratch closure was calculated using Adobe Photoshop 7.0.1 software (Adobe Systems Inc., San Jose, Calif.). The final result is determined by averaging three results. […]
1. Cells were trypsinized and centrifuged, then resuspended and counted, and resuspended with serum-free medium, diluted to 5×10^4 to 5×10^5 cells/mL; AXL inhibitor solution at different concentrations were prepared with the cell suspension, and added into the upper chamber, and 800 μL of a medium containing 10% FBS was added into the lower chamber. […]

MDA-MB-231 cells [2] = assay: Immunofluorescence, EMT marker proteins in TGF-β1-induced MDA-MB-231 cells; details: TGF-β1 (10 ng/ml); for expression of E-cadherin / expression of N-cadherin: 96 hours; for phosphorylation level of AXL: FIGS. 3 and 4
Protocol: Immunofluorescence experiments were used to determine the effect of the compounds on EMT marker proteins.
MDA-MB-231 cells were seeded onto a glass slide pre-placed in a 6-well plate, and then treated with compounds to be tested at different concentrations (0.04, 0.2, 1.5 μM) with or without TGF-β1 (10 ng/ml) for 96 hours. At room temperature, the cells were fixed with a 4% formaldehyde solution for 15 minutes, treated with 0.5% Triton X-100 for 10 minutes, and blocked with PBS solution containing 3% goat serum albumin for one hour, and then incubated with antibodies against E-cadherin and N-cadherin (1:1000; Abeam, ab10983) for 1.5 hours at room temperature. The cells were then washed with PBST and co-incubated with Alexa Fluor 555 labeled rabbit secondary antibody (4413; CST, USA) or Alexa Fluor 488 labeled murine secondary antibody (4408; CST, USA) for one hour at room temperature in the dark. Cell nuclei were stained with ProLong Gold antifade reagent (P36931; Invitrogen, USA) for 5 minutes, glass slides were covered with pieces of glass, and samples were observed using a laser scanning confocal microscope (Zeiss 710; Germany).

[3] = tested on: AXL phosphorylation in MDA-MB-231 cells; assay: Western Blot, AXL kinase phosphorylation of MDA-MB-231 cells; details: FIG. 1
Protocol: Effect of quinolone derivatives on AXL kinase phosphorylation of MDA-MB-231 and 4T1 cells A conventional Western Blot was used, which includes four steps: sample preparation; electrophoretic separation; membrane transfer of proteins; and immunological hybridization and developing (protein detection).
1. MDA-MB-231 cells were seeded into a 6-well plate at an appropriate density, cultured for 24 hours until the cell confluency reached about 80%, drug-containing medium at corresponding concentration was added respectively, and co-cultured for 2-24 hours.
2. The medium was discarded at a predetermined time point, the well plate was washed twice with precooled PBS at 4° C. and the residual liquid was washed away.
3. 1×SDS sample buffer (CST recommended, 6-well plate, 300 μL) was added, scraping all the cells in the dish with a cell scraper, and transferring same to a 1.5 mL of EP tube (operated on ice).
4. The cell lysate was sonicated for 10-15 seconds to cut off DNA, so as to reduce sample viscosity.
5. Boil the sample for 5 min.
6. 12000 g of samples were centrifuged at 4° C. for 5 min, and the supernatant was taken and stored at −20° C. or −80° C. for western blot analysis.
1. Electrophoretic separation: 15-20 μL of 8%-12% SDS-PAGE polyacrylamide gel was loaded, with 90 v electrophoresis for the upper gel, and 120 v electrophoresis for the lower gel.
2. Assembly and transferring of the sandwich: submerging the polyacrylamide gel in transfer buffer and equilibrated for 10 min. According to the size of polyacrylamide gel, PVDF membrane (Mili pore) and 6 pieces of filter paper were cut out and placed in transfer buffer and equilibrated for 10 min. The PVDF membrane needs to be immersed in methanol for 3-5 seconds. Placed in such sequence as sponge→3 layers of filter paper→gel→membrane→3 layers of filter paper→sponge. Ensure there are no bubbles.
3. Membrane transferring: the transfer tank was placed in an ice bath, and the sandwich was added. Ensure the gel facing the negative electrode, and the PVDF facing the positive electrode. 1× membrane transferring buffer was added and placed under the constant pressure, subjecting same to membrane transferring at 110 V for 0.5 to 2 h depending on the molecular weight of the protein to be tested.
4. Blocking: the PVDF membrane was removed after the membrane transferring, blocked with blocking solution (1×TBS, containing 0.5% Tween-20 and 5% skim milk powder), and shaked slowly for 2 h on a horizontal shaker.
5. Incubation of the primary antibody: after blocking, diluting the primary antibody (antibody AXL, phosphor-AXL, AKT, phosphor-AKT, GAPDH, etc.) at 1: 200-1:1000. The PVDF membrane and the antibody were incubated overnight in a wet box at 4° C. to allow sufficient binding of the antibody to the protein of interest.
6. […]

SMILES	invasion and migration of MDA-MB-231 cells induced by TGF-β1 (MDA-MB-231 cells [1])	expression of E-cadherin (MDA-MB-231 cells [2])	expression of N-cadherin (MDA-MB-231 cells [2])	phosphorylation level of AXL (MDA-MB-231 cells [2])	phosphorylation of AXL [3]	phosphorylation of downstream signaling protein AKT [3]
CCc1ccc2c(c1)c(=O)c(C(=O)Nc1ccc(Oc3ncnc4[nH]cc(-c5ccccc5)c34)c(F)c1)c(C)n2C [TL4800075, 6-ethyl-N-(3-fluoro-4-((5-phenyl-7H-pyrrolo[2,3-d]pyrimidin-4-yl)oxy)phenyl)-1,2-dimethyl-4-oxo-1,4-dihydroquinoline-3-carboxamide]	inhibit the invasion and migration of breast cancer MDA-MB-231 cells induced by TGF-β1 in a dose-dependent manner	significantly upregulate	down-regulate	inhibit the phosphorylation level of AXL in a dose-dependent manner	significantly inhibit	significantly inhibit
CCc1ccc2c(c1)c(=O)c(C(=O)Nc1ccc(Oc3ncnc4cc(OC)c(OC)cc34)c(F)c1)c(C)n2C [TL4800191, N-(4-(6,7-dimethoxyquinazolin-4-yloxy)-3-fluorophenyl)-6-ethyl-1,2-dimethyl-4-oxo-1,4-dihydroquinoline-3-carboxamide]	inhibit the invasion and migration of breast cancer MDA-MB-231 cells induced by TGF-β1 in a dose-dependent manner	significantly upregulate	down-regulate	inhibit the phosphorylation level of AXL in a dose-dependent manner	significantly inhibit	significantly inhibit
